Series [1] is described as follows: Molar enthalpy of transition or fusion. To be noted: DSC.
Series [2] can be described thus: Solid-liquid equilibrium temperature. To be noted: 101 kPa; Crystal 2; DTA.
For series [3] the following is noted: Crystal; DTA.

Structures are written as SMILES. Numbers after ± are expanded uncertainties.

Consider `CCCC[N+](CCCC)(CCCC)CCCC.O=[N+]([O-])[O-]` [tetrabutylammonium nitrate], for which the “Molar enthalpy of transition or fusion” value is 0.0478 ± 0.0239 kcal/mol in series [1] (Crystal 2) and 3.42 ± 0.12 kcal/mol in series [1] (Crystal). For the same molecule, the Solid-liquid equilibrium temperature in series [2] turned out to be 361.4 ± 0.2 K. Further, in series [3], the Normal melting temperature was 118.0 ± 1.1 °C.
In the case of `CC[N+](CC)(CC)CC.O=[N+]([O-])[O-]` [tetraethylammonium nitrate], the “Molar enthalpy of transition or fusion” value in series [1] (Crystal 2) was 2.58 ± 0.0956 kcal/mol. In series [2], the Solid-liquid equilibrium temperature came to 371.5 ± 0.3 K.

Source of the values: the NIST ThermoML archive (doi:10.1016/j.jct.2012.02.035).
